We go through seven compounds from patent publication US9303015B2, “Heteroaryl linked quinolinyl modulators of RORγt” (Janssen Pharmaceutica NV, priority 2012, dated 2016).

“And” between values parts separate entries of the source, which are not always exact repeats. Equal entries are not always repeated. Structures can show the parent of a compound that is named as a salt.

One experiment has as its target human RORγt LBD (Homo sapiens (Human), UniProt P51449). The experiment is described as follows: RORγt reporter assay (GAL4-RORγt LBD luciferase, HEK293T cells). The settings on record: for IC50 / RORγt reporter Assay, % inhibition @ 6 μM: HEK293T cells; for IC50: 24 hours compound treatment; for inhibition at 6 µM: HEK-293T, read-out: RORγt reporter Assay, % inhibition @ 6 μM, 6 μM, HEK293T cells. The class given is cell-based.

Experiment [1] deals with human RORγt ligand binding domain (RORγt LBD) (Homo sapiens (Human), UniProt P51449). Briefly: RORγt ThermoFluor assay (thermal shift, binding affinity). To be noted: estimated from thermal shift concentration response. How it is done: This approach is applicable to a wide variety of systems, and rigorous in theoretical interpretation through quantitation of equilibrium binding constants (KD).
The shift in the melting point described as a ΔTm is proportional to the concentration and affinity of the ligand.
ThermoFluor® experiments were carried out using instruments owned by Janssen Research and Discovery, L.L.C. through its acquisition of 3-Dimensional Pharmaceuticals, Inc. 1,8-ANS (Invitrogen) was used as a fluorescent dye. Protein and compound solutions are dispensed into black 384-well polypropylene PCR microplates (Abgene) and overlayed with silicone oil (1 μL, Fluka, type DC 200) to prevent evaporation.
Bar-coded assay plates are robotically loaded onto a thermostatically controlled PCR-type thermal block and then heated at a typical ramp-rate of 1° C./min for all experiments. Fluorescence was measured by continuous illumination with UV light (Hamamatsu LC6) supplied via fiber optic and filtered through a band-pass filter (380-400 nm; >60D cutoff). Fluorescence emission of the entire 384-well plate was detected by measuring light intensity using a CCD camera (Sensys, Roper Scientific) filtered to detect 500±25 nm, resulting in simultaneous and independent readings of all 384 wells. Images were collected at each temperature, and the sum of the pixel intensity in a given area of the assay plate was recorded versus temperature. Reference wells contained RORγt without compounds, and the assay conditions were as follows: • 0.065 mg/mL RORγt • 60 μM 1,8-ANS • 100 mM Hepes, pH 7.0 • 10 mM NaCl • 2.5 mM GSH • 0.002% Tween-20
Project compounds were arranged in a pre-dosed mother plate (Greiner Bio-one) wherein compounds are serially diluted in 100% DMSO by 1:2 from a high concentration of 10 mM over 12 columns within a series (column 12 is a reference well containing DMSO, no compound). The compounds were robotically dispensed directly into assay plates (1x=[…]) using a Hummingbird capillary liquid handling instrument (Digilab). Following compound dispense, protein and dye in buffer was added to achieve the final assay volume of 3 μL, followed by 1 μL of silicone oil.

Experiment [2] relates to IL-17 production by CD4 T cells. The experiment is described as follows: Human Th17 assay. The experiment is classed as cell-based. The settings on record: Homo sapiens, CD4+ T, 72 h, IL-17 in supernatant after 3 days, human CD4+ T cells under Th17 differentiation. From the text: The human Th17 assay tests the effect of RORγt modulatory compounds on IL-17 production by CD4 T cells under conditions which favor Th17 differentiation.
Total CD4^+ T cells were isolated from the peripheral blood mononuclear cells (PBMC) of healthy donors using a CD4^+ T cell isolation kit II, following the manufacturer's instructions (Miltenyi Biotec). Cells were resuspended in a medium of RPMI-1640 supplemented with 10% fetal bovine serum, penicillin, streptomycin, glutamate, and β-mercaptoethanol and were added to 96-well plates at 1.5×10^5 per 100 μL per well. 50 μL of compound at titrated concentrations in DMSO were added into each well at final DMSO concentration at 0.2%. Cells were incubated for 1 hour, then 50 μL of Th17 cell differentiation medium was added to each well. The final concentrations of antibodies and cytokines (R&D Systems) in differentiation medium were: 3×10^6/mL anti-CD3/CD28 beads (prepared using human T cell activation/expansion kit, Miltenyi Biotec), 10 μg/mL anti-IL4, 10 μg/mL anti-IFNγ, 10 ng/mL IL113, 10 ng/mL IL23, 50 ng/mL IL6, 3 ng/mL TGFβ and 20 U/mL IL2. Cells were cultured at 37° C. and 5% CO2 for 3 days. Supernatants were collected and the accumulated IL-17 in culture was measured by using MULTI-SPOT® Cytokine Plate following manufacture's instruction (Meso Scale Discovery). The plate was read using Sector Imager 6000, and IL-17 concentration was extrapolated from the standard curve. The IC50s were determined by GraphPad.

Chain of human RORγt LBD (P51449 258-518): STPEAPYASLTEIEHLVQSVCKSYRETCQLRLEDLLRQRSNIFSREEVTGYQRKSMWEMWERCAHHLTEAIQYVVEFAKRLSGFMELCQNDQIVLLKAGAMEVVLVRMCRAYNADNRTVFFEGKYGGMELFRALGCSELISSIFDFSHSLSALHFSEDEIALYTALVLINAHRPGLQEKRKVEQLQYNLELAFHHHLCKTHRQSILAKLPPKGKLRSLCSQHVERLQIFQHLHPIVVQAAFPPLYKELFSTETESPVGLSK
Chain of human RORγt ligand binding domain (RORγt LBD) (P51449 other isoform, or with tags, fused parts or gaps): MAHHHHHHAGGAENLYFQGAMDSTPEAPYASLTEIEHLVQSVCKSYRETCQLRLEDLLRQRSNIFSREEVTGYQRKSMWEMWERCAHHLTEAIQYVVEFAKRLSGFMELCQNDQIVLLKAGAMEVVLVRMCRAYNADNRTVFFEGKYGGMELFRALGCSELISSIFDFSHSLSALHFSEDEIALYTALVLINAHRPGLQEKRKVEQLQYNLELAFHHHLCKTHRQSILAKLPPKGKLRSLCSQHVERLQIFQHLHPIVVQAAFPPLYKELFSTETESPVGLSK

In the case of `CCN(CC)c1nc2ccc(C(O)(c3ccc(Cl)cc3)c3cncn3C)cc2c(Cl)c1Oc1ccccc1` (stereo not shown) [Example 3a, (4-Chloro-2-(diethylamino)-3-phenoxyquinolin-6-yl)(4-chlorophenyl)(1-methyl-1H-imidazol-5-yl)methanol], on human RORγt LBD, the IC50 was determined as 0.12 µM and the inhibition at 6 µM was found to be 96%. The dissociation constant (Kd) in experiment [1] is 0.059 µM. Besides, the IC50 in experiment [2] was found to be 0.2 µM.
Consider `Cn1cncc1C(O)(c1ccc(Cl)cc1)c1ccc2nc(C#N)c(Oc3ccccc3)c(C#N)c2c1` (stereo not shown) [Example 20, 6-((4-chlorophenyl)(hydroxy)(1-methyl-1H-imidazol-5-yl)methyl)-3-phenoxyquinoline-2,4-dicarbonitrile.TFA], for which, at human RORγt LBD, the IC50 is 0.11 µM and the inhibition at 6 µM worked out at 97%. The equilibrium dissociation constant (Kd) in experiment [1] is 0.0057 µM. In experiment [2], this compound showed an IC50 of 0.04 µM.
The matching figures for `CN(C)c1nc2ccc(C(O)(c3ccc(Cl)cc3)c3cncn3C)cc2c(Cl)c1Oc1ccccc1` (stereo not shown) [Example 16, (4-Chloro-2-(dimethylamino)-3-phenoxyquinolin-6-yl)(4-chlorophenyl)(1-methyl-1H-imidazol-5-yl)methanol]: 0.36 µM, 94%, 0.031 µM and 0.1 µM.
On to `Cn1cncc1C(O)(c1ccc(C(F)(F)F)nc1)c1ccc2nc(C#N)c(Oc3ccccc3)c(C#N)c2c1` (single isomer, unassigned) [Example 22c, 6-(Hydroxy(1-methyl-1H-imidazol-5-yl)(6-(trifluoromethyl)pyridin-3-yl)methyl)-3-phenoxyquinoline-2,4-dicarbonitrile], for which, on human RORγt LBD, the “RORγt reporter Assay, % inhibition @ 6 μM” value came to 88% and the IC50 turned out to be 0.68 µM. Also, the Kd in experiment [1] was 0.097 µM.
Consider `CCOc1nc2ccc(C(O)(c3cccnc3)c3cccc(Cl)c3)cc2c(Cl)c1N(C)c1ccccc1` (stereo not shown) [Example 36, (4-Chloro-2-ethoxy-3-(methyl(phenyl)amino)quinolin-6-yl)(3-chlorophenyl) (pyridin-3-yl)methanol.TFA], for which, on human RORγt LBD, the midpoint of inhibition, the IC50, lay at 0.089 µM and the inhibition at 6 µM was 89%. For the same compound, in experiment [1], the equilibrium dissociation constant (Kd) is 0.032 µM. In addition, the IC50 in experiment [2] amounted to 0.16 µM.
For `Cn1cncc1C(O)(c1ccc(C(F)(F)F)nc1)c1ccc2nc(C#N)c(Oc3ccccc3)c(C#N)c2c1` (single isomer, unassigned) [Example 22b, 6-(Hydroxy(1-methyl-1H-imidazol-5-yl)(6-(trifluoromethyl)pyridin-3-yl)methyl)-3-phenoxyquinoline-2,4-dicarbonitrile], on human RORγt LBD, the “RORγt reporter Assay, % inhibition @ 6 μM” value is listed as 48%; the IC50 is ~6 µM and > 6 µM. The Kd in experiment [1] is 0.0029 µM.
`Cn1cncc1C(O)(c1ccc(C(F)(F)F)nc1)c1ccc2nc(N3CCC3)c(Oc3ccc(Cl)cc3)c(Cl)c2c1` (stereo not shown) [Example 30a, (2-(Azetidin-1-yl)-4-chloro-3-(4-chlorophenoxy)quinolin-6-yl)(1-methyl-1H-imidazol-5-yl)(6-(trifluoromethyl)pyridin-3-yl)methanol]: at human RORγt LBD, half-maximal inhibition (IC50) required 0.14 µM and the inhibition at 6 µM is 93%. Further, in experiment [1], the Kd was 0.0018 µM.
